Data on five molecules can be found in patent US20250243189A1, “HERBICIDAL IMIDAZOLE-CONTAINING COMPOUNDS” (SYNGENTA CROP PROTECTION AG, priority 2022, published 2025).

Common to all, as to assay type: in vivo
What all share (conditions): 250 g/ha, evaluated after 13 days, five-point scale

Assay [1] concerns IPOHE. Kind of assay: Post-emergence herbicidal glasshouse test. The procedure, abridged:
(§1)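 Pot-grown plants in standard soil; spray at day 1 (pre-em.) or day 8 (post-em.); 250 g/ha unless stated; acetone/water 50:50, 0.5% Tween 20; 24/16° C, 14 h light, 65% RH; % damage at 13 d, 1–5 scale.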

In assay [2] the test system is Amaranthus retoflexus (AMARE). Kind of assay: Post-emergence herbicidal glasshouse test. The procedure, abridged: as §1
Assay [3] relates to Echinochloa crus-galli (ECHCG). As to the kind of experiment: Post-emergence herbicidal glasshouse test. The procedure, abridged:
as §1

Assay [4] concerns Setaria faberi (SETFA). Kind of assay: Post-emergence herbicidal glasshouse test. An outline of the steps: as §1
Assay [5] concerns AMAPA. As to the kind of experiment: Post-emergence herbicidal glasshouse test.
Assay [6] concerns IPOHE. Kind of assay: Pre-emergence herbicidal glasshouse test. The procedure, abridged: as §1
In assay [7] the test system is Amaranthus retoflexus (AMARE). Kind of assay: Pre-emergence herbicidal glasshouse test. An outline of the steps: as §1
Assay [8] concerns Echinochloa crus-galli (ECHCG). As to the kind of experiment: Pre-emergence herbicidal glasshouse test. The procedure, abridged:
as §1

Assay [9] has as its system Setaria faberi (SETFA). As to the kind of experiment: Pre-emergence herbicidal glasshouse test. The procedure, abridged: as §1
The subject of assay [10] is AMAPA. Kind of assay: Pre-emergence herbicidal glasshouse test.

With `FC(F)(F)c1cn(Cc2ncc(Cl)cn2)c(-c2ccco2)n1` [Compound 1.016], the “percentage damage caused to the plant, IPOHE” value with IPOHE [1] and in the assay with IPOHE [6] was 1 (1=0-20%) each time. In addition, the “percentage damage caused to the plant, AMARE” value in assay [2] and in assay [7] was 1 (1=0-20%) throughout. Also, the “percentage damage caused to the plant, ECHCG” value in assay [3] and in [8] was 1 (1=0-20%) in each case. Also, the “percentage damage caused to the plant, SETFA” value with Setaria faberi (SETFA) [4] and in the assay with Setaria faberi (SETFA) [9] was 1 (1=0-20%) in each case. The “percentage damage caused to the plant, AMAPA” value in the assay on AMAPA [5] and in the assay on AMAPA [10] was 1 (1=0-20%) each time.
Consider `FC(F)(F)c1cn(Cc2ncc(Cl)cn2)c(-c2ccsc2Cl)n1` [Compound 1.025], for which the “percentage damage caused to the plant, IPOHE” value with IPOHE [1] is 3 (3=41-60%); in the assay on IPOHE [6], 4 (4=61-80%). In addition, the “percentage damage caused to the plant, AMARE” value in [2] is recorded as 4 (4=61-80%); in assay [7], 5 (5=81-100%). The “percentage damage caused to the plant, ECHCG” value in [3] is listed as 4 (4=61-80%); in [8], 5 (5=81-100%). For the same molecule, the “percentage damage caused to the plant, SETFA” value is listed as 4 (4=61-80%) in the assay on Setaria faberi (SETFA) [4] and 5 (5=81-100%) in the assay with Setaria faberi (SETFA) [9]. For the same molecule, the “percentage damage caused to the plant, AMAPA” value with AMAPA [5] is 3 (3=41-60%); in the assay on AMAPA [10], 5 (5=81-100%).
As for `Fc1cnn(-c2nc(C(F)(F)F)cn2Cc2ncc(Cl)cn2)c1` [Compound 1.067], the “percentage damage caused to the plant, IPOHE” value in the assay on IPOHE [1] and with IPOHE [6] was 2 (2=21-40%) in each case. Moreover, the “percentage damage caused to the plant, AMARE” value in assay [2] is given as 4 (4=61-80%); in assay [7], 5 (5=81-100%). The “percentage damage caused to the plant, ECHCG” value in [3] and in assay [8] was 1 (1=0-20%) each time. Moreover, the “percentage damage caused to the plant, SETFA” value with Setaria faberi (SETFA) [4] and in the assay with Setaria faberi (SETFA) [9] was 1 (1=0-20%) each time. Further, the “percentage damage caused to the plant, AMAPA” value with AMAPA [5] is 3 (3=41-60%); with AMAPA [10], 4 (4=61-80%).
For `FC(F)(F)c1cn(Cc2ncc(Cl)cn2)c(-c2ccc(Br)s2)n1` [Compound 1.069], the “percentage damage caused to the plant, IPOHE” value in the assay with IPOHE [1] is 4 (4=61-80%); in the assay with IPOHE [6], 5 (5=81-100%). For the same molecule, the “percentage damage caused to the plant, AMARE” value in assay [2] and in assay [7] was 5 (5=81-100%) throughout. In addition, the “percentage damage caused to the plant, ECHCG” value in assay [3] and in [8] was 5 (5=81-100%) in each case. The “percentage damage caused to the plant, SETFA” value in the assay on Setaria faberi (SETFA) [4] and with Setaria faberi (SETFA) [9] was 5 (5=81-100%) in each case. Besides, the “percentage damage caused to the plant, AMAPA” value with AMAPA [5] and in the assay on AMAPA [10] was 5 (5=81-100%) throughout.
Regarding `FC(F)(F)c1cn(Cc2ncc(Cl)cn2)c(-c2ccsc2)n1` [Compound 1.030], the “percentage damage caused to the plant, IPOHE” value in the assay on IPOHE [1] and in the assay on IPOHE [6] was 4 (4=61-80%) in each case. Besides, the “percentage damage caused to the plant, AMARE” value in [2] and in assay [7] was 5 (5=81-100%) each time. In addition, the “percentage damage caused to the plant, ECHCG” value is 4 (4=61-80%) in [3] and 5 (5=81-100%) in assay [8]. Also, the “percentage damage caused to the plant, SETFA” value in the assay with Setaria faberi (SETFA) [4] and in the assay on Setaria faberi (SETFA) [9] was 5 (5=81-100%) in each case. Besides, the “percentage damage caused to the plant, AMAPA” value in the assay on AMAPA [5] and with AMAPA [10] was 5 (5=81-100%) each time.
